Patent US20010055756A1, “Internal de novo initiation sites of the HCV NS5B polymerase and use thereof” (priority 2000, published 2001)
“Also recorded” adds a separate entry of the source.

Tested on: HCV NS5B polymerase
Experiment: Testing of GTP analogs in the NS5B de novo initiation reaction with RNA template 24-1
Assay type: biochemical, hepatitis C virus
Settings: analog at 500 μM added to reactions with 100 μM or 500 μM GTP, 5 nM NS5B, 10 nM template 24-1, 2.5 h
Procedure: Unless indicated otherwise, the standard reactions that incorporated [α-^33P]UTP contained 5 nM of purified NS5B and 10-50 nM of the indicated RNA template (i.e.: 24, 24-1, 128-4, 130-21, 150-41 or mutant templates) incubated at 22° C. for 2.5 h in 22.5 mM Tris-HCl pH 7.5, 5 mM MgCl2, 1 mM EDTA, 1.5 mM DTT, 30 mM NaCl, 0.33% N-Dodecyl-β-D-Maltoside, 0.01% Igepal CA-630, 5% DMSO, 5 μCi [α-^33P]UTP, 10 μM UTP, 500 μM of the three other rNTPs and 0.16 U/μl RNase inhibitor (Promega). NS5B polymerase reactions that incorporated γ-^32P into the radioactively labeled 5′product were supplemented with either 8 μCi of [γ-^32P]GTP or [γ-^32P]ATP in place of [α-^33P]UTP in the standard reaction. The reactions were then supplemented with PK buffer (50 mM Tris HCl pH 7.5 150 mM NaCl, 0.5% SDS) and treated with Proteinase K (0.8 μg /μl) and glycogen (0.1 μg/μl) for 30 min at 37° C. RNA was extracted with phenol-chloroform and precipitated with isopropanol. The RNA pellet was dissolved in 10-15 μl of denaturing solution (80% formamide, 10 mM EDTA), heated for 10 min at 70-75° C. and analysed on denaturing 8 M urea/5% polyacrylamide gels. Gels were dried and radioactive products visualized with a phospho-imager (Molecular Dynamics).
m7GpppG and GpppG were purchased from Ambion; Ribavirin monophosphate and Ribavirin triphosphate were purchased from Chemgenes (Ashland, Mass.); ddGTP was from Amersham; Caged GTP was from Molecular Probes. All other GTP analogs were from Sigma/Aldrich. Each of the analogs was added (at 500 μM) to the NS5B polymerization reaction containing either: 100 μM or 500 μM GTP (reference reactions). Stimulation by GTP itself, as a positive control, was performed such that the reactions then contained 600 μM or 1 mM GTP (respectively labeled as the +500 μM GTP bars). The standard polymerase reactions incorporating [α-^33P]UTP were incubated for 2.5 h in the presence of 5 nM NS5B and 10 nM of RNA template 24-1. The reactions were stopped by spotting 8 μl on a DE81 filters which were then washed extensively (3×) with 1M NaPO4 pH 7 and dried. The radioactivity incorporated into product RNA that was retained on the DE-81 filters was measured in a scintillation counter. The effect of the various analogs on the reaction is represented by the fold stimulation of activity compared to 100μM or 500μM GTP (reference reaction bars). 5′-p-FSBA=5′-p-fluorosulfonyl-benzoyladenosine

| Molecule | effect on de novo initiation reaction (fold stimulation relative to GTP alone) | further results |
| --- | --- | --- |
| Nc1nc2c(ncn2[C@@H]2O[C@H](COP(=O)(O)O)[C@@H](O)[C@H]2O)c(=O)[nH]1 [GMP] | stimulating |  |
| Nc1nc2c(ncn2C(C=O)OC(C=O)COP(=O)(O)OP(=O)(O)OP(=O)(O)O)c(=O)[nH]1.[Na] (stereo not drawn) [GTP 2′3′-dialdehyde] | clear inhibitor; also recorded: inhibiting | effect on de novo initiation reaction (fold stimulation relative to GTP alone) (listed as GTP 2′3′dialdehyde): inhibitory |
| Nc1nc2c(ncn2[C@@H]2O[C@H](COP(=O)(O)OP(=O)(O)OP(=O)(O)O)[C@@H](O)[C@H]2O)c(=O)[nH]1 [GTP] | activation |  |
| Nc1nc2c(ncn2[C@@H]2O[C@H](COP(=O)(O)OP(=O)(O)OP(=O)(O)OC[C@H]3O[C@@H](n4cnc5c(=O)[nH]c(N)nc54)[C@H](O)[C@@H]3O)[C@@H](O)[C@H]2O)c(=O)[nH]1 [GpppG] | most efficient analogs in stimulating de novo initiation; also recorded: stimulating; also recorded: stimulate |  |
| CC(OP(=O)(O)OP(=O)(O)OP(=O)(O)OC[C@H]1O[C@@H](n2cnc3c(=O)[nH]c(N)nc32)[C@H](O)[C@@H]1O)c1ccccc1[N+](=O)[O-] (stereo partly drawn) [caged-GTP] | stimulating |  |
| Nc1nc2c(ncn2[C@@H]2O[C@H](CO)[C@@H](O)[C@H]2O)c(=O)[nH]1 [guanosine] | stimulating; also recorded: stimulate |  |
| Cn1c[n+]([C@@H]2O[C@H](COP(=O)(O)OP(=O)([O-])OP(=O)(O)OC[C@H]3O[C@@H](n4cnc5c(=O)[nH]c(N)nc54)[C@H](O)[C@@H]3O)[C@@H](O)[C@H]2O)c2nc(N)[nH]c(=O)c21 [m7 GpppG, 7-methyl GpppG] | most efficient analogs in stimulating de novo initiation | effect on de novo initiation reaction (fold stimulation relative to GTP alone) (listed as 7-methyl GpppG): stimulating; also recorded: stimulate |
| NC(=O)c1ncn([C@@H]2O[C@H](CO[P@@](=O)(O)O[P@](=O)(O)OP(=O)(O)O)[C@@H](O)[C@H]2O)n1 [ribavirin tri-phosphate, Ribavirin triphosphate] | moderate level of inhibition | effect on de novo initiation reaction (fold stimulation relative to GTP alone) (listed as ribavirin triphosphate): inhibiting; also recorded: inhibitory |
| GDP-γ-S | stimulating |  |
